Source: ChEMBL document CHEMBL5442379, “ASAP - SARS-CoV-2 nsp3 macrodomain single point” (2024)

Molecular target: Replicase polyprotein 1ab (Severe acute respiratory syndrome coronavirus 2) (UniProt P0DTD1)
Description: Functional biochemical assay to identify treatments for viral infectious disease that targets SARS-COV-2 nsp3 macrodomain, whereby the mechanism of action displaces an ADP-Ribose modified peptide from the binding site. Utilizing a time-resolved fluorescence method to measure binding by reading the emitted fluorescence intensity in two wavelengths.

`O=C(NCc1cn[nH]c1)c1cnn2ccc(C3CCN(C(=O)c4ccccc4)CC3)cc12` showed an inhibition (Concentration 49.75 uM, Number of replicates 2.0, Standard deviation 0.103 %) of -2.37% and an inhibition (Concentration 99.5 uM, Number of replicates 2.0, Standard deviation 3.225 %) of -4.5%.

`O=C(Nc1cnc2[nH]ncc2c1)c1cccc(-c2noc(C(F)(F)F)n2)c1` showed an inhibition (Concentration 50.0 uM, Number of replicates 2.0, Standard deviation 7.077 %) of -0.675% and an inhibition (Concentration 100.0 uM, Number of replicates 2.0, Standard deviation 3.401 %) of -1.62%.

Work on `C[C@@]1(C(N)=O)CCCN1C(=O)c1cnn2ccc(C3CCN(C(=O)c4ccccc4)CC3)cc12` yielded an inhibition (Concentration 49.75 uM, Number of replicates 2.0, Standard deviation 3.259 %) of -8.04% and an inhibition (Concentration 99.5 uM, Number of replicates 2.0, Standard deviation 21.157 %) of 10.4%.

With `O=C(c1cncc(O)n1)N1CCC(c2ccn3ncc(C(=O)N4CCCCC4)c3c2)CC1` the inhibition (Concentration 49.75 uM, Number of replicates 2.0, Standard deviation 0.648 %) was 26.6% and the inhibition (Concentration 99.5 uM, Number of replicates 2.0, Standard deviation 1.31 %) was 41.9%.

For `O=C(c1ccccc1)N1CCC(c2ccn3ncc(C(=O)N4CCc5cccnc54)c3c2)CC1`, the inhibition (Concentration 49.75 uM, Number of replicates 2.0, Standard deviation 3.564 %) was -4.67% and the inhibition (Concentration 99.5 uM, Number of replicates 2.0, Standard deviation 0.208 %) was -8.02%.

Compound `Cc1cccc(C)c1-n1nnnc1CSc1ncnc2[nH]cnc12` has an inhibition (Concentration 50.0 uM, Number of replicates 2.0, Standard deviation 4.544 %) of 6.63%.

`c1ccc(-c2cc(CNc3ncnc4[nH]ccc34)on2)cc1` was tested, and the inhibition (Concentration 50.0 uM, Number of replicates 2.0, Standard deviation 8.772 %) was 7.14% and the inhibition (Concentration 100.0 uM, Number of replicates 2.0, Standard deviation 1.845 %) was -3.46%.

With `C[C@H](NC(=O)c1ccc(NC(=O)Nc2ccccc2)cc1)[C@@H]1CCCO1` the inhibition (Concentration 49.75 uM, Number of replicates 2.0, Standard deviation 1.099 %) was -4.28% and the inhibition (Concentration 99.5 uM, Number of replicates 2.0, Standard deviation 2.587 %) was -4.86%.

For `CNC(=O)c1cccc(CNC(=O)c2ncnc3[nH]ccc23)c1`, the inhibition (Concentration 50.0 uM, Number of replicates 2.0, Standard deviation 1.029 %) was -5.91%.

For `CC(C)[C@@H](Nc1ncnc2[nH]ccc12)c1nncn1C`, the inhibition (Concentration 49.75 uM, Number of replicates 2.0, Standard deviation 0.565 %) was 4.59% and the inhibition (Concentration 99.5 uM, Number of replicates 2.0, Standard deviation 7.858 %) was 10.8%.

`O=C(c1cc(O)ncn1)N1CCC(c2ccn3ncc(C(=O)N4CCCCC4)c3c2)CC1` was tested, and the inhibition (Concentration 49.75 uM, Number of replicates 2.0, Standard deviation 0.931 %) was 19.1% and the inhibition (Concentration 99.5 uM, Number of replicates 2.0, Standard deviation 1.95 %) was 30.9%.

In the case of `O[C@@]1(C(F)(F)F)CCCN(c2ncnc3n[nH]cc23)CC1`, the inhibition (Concentration 50.0 uM, Number of replicates 2.0, Standard deviation 1.087 %) is reported as -4.14%.

For `Cc1noc(CCCNC(=O)c2ncnc3[nH]ccc23)n1`, the inhibition (Concentration 50.0 uM, Number of replicates 2.0, Standard deviation 1.028 %) was -5.13%.

With `C[C@@H]1[C@H](O)CCCN1C(=O)c1ccc(NC(=O)Nc2ccccc2)cc1` the inhibition (Concentration 49.75 uM, Number of replicates 2.0, Standard deviation 0.457 %) was -2.96% and the inhibition (Concentration 99.5 uM, Number of replicates 2.0, Standard deviation 5.068 %) was -2.72%.

`FC(F)(F)c1nnc2n1CCN(c1ncnc3[nH]ccc13)C2` gave an inhibition (Concentration 49.75 uM, Number of replicates 2.0, Standard deviation 1.459 %) of -1.97% and an inhibition (Concentration 99.5 uM, Number of replicates 2.0, Standard deviation 0.538 %) of -1%.

Compound `O=C(O)c1ccc2c(c1)ncn2-c1ccc(CNC(=O)c2ncnc3[nH]ccc23)cc1` has an inhibition (Concentration 99.5 uM, Number of replicates 2.0, Standard deviation 0.835 %) of -4.65%.

Work on `C#Cc1cccc(NC(=O)CN(C)c2ncnc3[nH]ccc23)c1` yielded an inhibition (Concentration 50.0 uM, Number of replicates 2.0, Standard deviation 4.462 %) of 4.4%.

Compound `FC(F)(F)c1nc(NC[C@H]2CCCO2)c2nc[nH]c2n1` has an inhibition (Concentration 50.0 uM, Number of replicates 2.0, Standard deviation 2.867 %) of 2.5%.

For `O=C(c1cccc(Br)c1)N1CCC(c2ccn3ncc(C(=O)N4CCCCC4)c3c2)CC1`, the inhibition (Concentration 50.0 uM, Number of replicates 2.0, Standard deviation 0.499 %) was 32.1%.

`CCC(CC)(C(=O)Nc1nc(C)nc2[nH]ccc12)C(=O)OC(C)(C)C` showed an inhibition (Concentration 50.0 uM, Number of replicates 2.0, Standard deviation 5.081 %) of -9.46% and an inhibition (Concentration 100.0 uM, Number of replicates 2.0, Standard deviation 0.41 %) of -4.71%.

With `Cc1c(-c2cnc3nc[nH]c(=O)c3c2)ccc2[nH]ncc12` the inhibition (Concentration 49.75 uM, Number of replicates 2.0, Standard deviation 0.542 %) was -3.12% and the inhibition (Concentration 99.5 uM, Number of replicates 2.0, Standard deviation 2.71 %) was -4.36%.

With `O=C(c1cn2ncccc2n1)N1CCC(c2ccn3ncc(C(=O)N4CCCCC4)c3c2)CC1` the inhibition (Concentration 49.75 uM, Number of replicates 2.0, Standard deviation 0.525 %) was 30.7% and the inhibition (Concentration 99.5 uM, Number of replicates 2.0, Standard deviation 6.296 %) was 53.8%.

For `Cc1nc(NC(=O)Cn2cnc3ccccc3c2=O)c2cc[nH]c2n1`, the inhibition (Concentration 49.75 uM, Number of replicates 2.0, Standard deviation 4.18 %) was -4.07% and the inhibition (Concentration 99.5 uM, Number of replicates 2.0, Standard deviation 1.131 %) was -4.89%.

`Cc1nn(C)c(C)c1[C@H]1COCCN1c1ncnc2[nH]ccc12` was tested, and the inhibition (Concentration 49.75 uM, Number of replicates 2.0, Standard deviation 4.821 %) was -0.137% and the inhibition (Concentration 99.5 uM, Number of replicates 2.0, Standard deviation 1.988 %) was -0.128%.

Work on `Cc1ccc(-c2n[nH]cc2CNc2cnc3[nH]ncc3c2)o1` yielded an inhibition (Concentration 50.0 uM, Number of replicates 2.0, Standard deviation 33.024 %) of 7.23%.

Work on `O=C(Nc1ccccc1)Nc1ccc(C(=O)N2CCOCC23CCC3)cc1` yielded an inhibition (Concentration 49.75 uM, Number of replicates 2.0, Standard deviation 0.885 %) of -5.18% and an inhibition (Concentration 99.5 uM, Number of replicates 2.0, Standard deviation 3.072 %) of -3.18%.

`C[C@@H](O)[C@@H]1CN(C(=O)c2ncnc3[nH]ccc23)CCO1` was tested, and the inhibition (Concentration 50.0 uM, Number of replicates 2.0, Standard deviation 0.15 %) was -3.13%.

In the case of `CC(C)[C@@H](Nc1ncnc2[nH]ccc12)c1cccs1`, the inhibition (Concentration 49.75 uM, Number of replicates 2.0, Standard deviation 1.872 %) is reported as 84.7% and the inhibition (Concentration 99.5 uM, Number of replicates 2.0, Standard deviation 2.645 %) is reported as 89.9%.

Compound `COc1nc2cc(NC(=O)c3cc(N4CCNC4=O)ccc3F)ccc2[nH]1` has an inhibition (Concentration 50.0 uM, Number of replicates 2.0, Standard deviation 4.804 %) of -4.21%.

`NC(=O)c1ncccc1C(=O)N1CCC(c2ccn3ncc(C(=O)N4CCCCC4)c3c2)CC1` gave an inhibition (Concentration 49.75 uM, Number of replicates 2.0, Standard deviation 4.804 %) of 20% and an inhibition (Concentration 99.5 uM, Number of replicates 2.0, Standard deviation 1.17 %) of 36%.

`C[C@@H](NC(=O)c1ncnc2[nH]ccc12)c1ncc(C(=O)O)c(=O)[nH]1` was tested, and the inhibition (Concentration 49.75 uM, Number of replicates 2.0, Standard deviation 2.226 %) was 4.87% and the inhibition (Concentration 99.5 uM, Number of replicates 2.0, Standard deviation 1.623 %) was 10.7%.

With `O=C(O)c1sccc1C(=O)N1CCC(c2ccn3ncc(C(=O)N4CCCCC4)c3c2)CC1` the inhibition (Concentration 49.75 uM, Number of replicates 2.0, Standard deviation 1.624 %) was 55.5% and the inhibition (Concentration 99.5 uM, Number of replicates 2.0, Standard deviation 1.425 %) was 71.5%.

Work on `C[C@]1(C(=O)O)CCCN1C(=O)c1ncnc2[nH]ccc12` yielded an inhibition (Concentration 50.0 uM, Number of replicates 2.0, Standard deviation 5.501 %) of -5.29% and an inhibition (Concentration 100.0 uM, Number of replicates 2.0, Standard deviation 0.477 %) of 5.67%.

With `NC(=O)c1ccccc1NC(=O)c1ncnc2[nH]ccc12` the inhibition (Concentration 50.0 uM, Number of replicates 2.0, Standard deviation 0.083 %) was -2.59%.

Work on `c1cc(-c2nnc(Sc3ncnc4[nH]ccc34)[nH]2)ccn1` yielded an inhibition (Concentration 50.0 uM, Number of replicates 2.0, Standard deviation 4.573 %) of 10.7%, an inhibition (Concentration 50.0 uM, Number of replicates 2.0, Standard deviation 8.715 %) of 5.47% and an inhibition (Concentration 100.0 uM, Number of replicates 2.0, Standard deviation 31.914 %) of 3.32%.

In the case of `CC(C)(c1noc(-c2ncnc3[nH]ccc23)n1)S(C)(=O)=O`, the inhibition (Concentration 50.0 uM, Number of replicates 2.0, Standard deviation 1.059 %) is reported as -0.756%.

`O=C(O)[C@H]1CCCCCN1C(=O)c1ncnc2[nH]ccc12` gave an inhibition (Concentration 50.0 uM, Number of replicates 2.0, Standard deviation 6.117 %) of 11.8%.

In the case of `c1ccc(-c2n[nH]cc2CNc2cnc3[nH]ncc3c2)cc1`, the inhibition (Concentration 50.0 uM, Number of replicates 2.0, Standard deviation 1.159 %) is reported as -2.04%.

Compound `O=C(CCN(Cc1cccc(Cl)c1)C(=O)[C@@H]1CC1(F)F)N1CCNCC1` has an inhibition (Concentration 49.75 uM, Number of replicates 2.0, Standard deviation 3.095 %) of -2.07% and an inhibition (Concentration 99.5 uM, Number of replicates 2.0, Standard deviation 1.648 %) of -3.76%.

`Cc1c[nH]nc1C(=O)N1CCC(c2ccn3ncc(C(=O)N4CCCCC4)c3c2)CC1` was tested, and the inhibition (Concentration 49.75 uM, Number of replicates 2.0, Standard deviation 6.018 %) was 8.47% and the inhibition (Concentration 99.5 uM, Number of replicates 2.0, Standard deviation 4.753 %) was 27.4%.

`O=C(NC1CCC(F)(F)CC1)c1ncnc2[nH]ccc12` gave an inhibition (Concentration 49.75 uM, Number of replicates 2.0, Standard deviation 1.299 %) of -3.47% and an inhibition (Concentration 99.5 uM, Number of replicates 2.0, Standard deviation 1.382 %) of -5.78%.

`Cc1ncc(NCc2cc3n(n2)CCOC3)cc1C(N)=O` showed an inhibition (Concentration 50.0 uM, Number of replicates 2.0, Standard deviation 4.482 %) of 0.46%.

`O=C(c1ccncc1)N1CCC(c2ccn3ncc(C(=O)N4CCCCC4)c3c2)CC1` showed an inhibition (Concentration 49.75 uM, Number of replicates 2.0, Standard deviation 1.966 %) of 10.8% and an inhibition (Concentration 99.5 uM, Number of replicates 2.0, Standard deviation 0.415 %) of 26.5%.

Work on `O=C(OCC(Br)=C1CCOCC1)c1ncnc2[nH]ccc12` yielded an inhibition (Concentration 50.0 uM, Number of replicates 2.0, Standard deviation 2.217 %) of -5.36%.

`Cn1c(C(=O)NCCNC(=O)c2ccco2)cc2c(=O)n3ccccc3nc21` gave an inhibition (Concentration 50.0 uM, Number of replicates 2.0, Standard deviation 1.378 %) of -4.47%.

`Cc1n[nH]c(C)c1C(=O)N1CCC(c2ccn3ncc(C(=O)N4CCCCC4)c3c2)CC1` showed an inhibition (Concentration 49.75 uM, Number of replicates 2.0, Standard deviation 0.408 %) of 10.8% and an inhibition (Concentration 99.5 uM, Number of replicates 2.0, Standard deviation 0.015 %) of 23.3%.

`Cc1[nH]c2ncnc(NC(=O)[C@@H]3CCO[C@@H]3C)c2c1C` gave an inhibition (Concentration 50.0 uM, Number of replicates 2.0, Standard deviation 0.696 %) of 35.1%.

`Cc1[nH]c2ncnc(NC(=O)CCc3ccccc3)c2c1C` showed an inhibition (Concentration 50.0 uM, Number of replicates 2.0, Standard deviation 2.066 %) of 5.02%.

With `CC(C)[C@@H]1[C@H](O)CCN1c1ncnc2[nH]ccc12` the inhibition (Concentration 49.75 uM, Number of replicates 2.0, Standard deviation 3.675 %) was 17.7% and the inhibition (Concentration 99.5 uM, Number of replicates 2.0, Standard deviation 0.827 %) was 32.1%.
